Numbers after ± are expanded uncertainties. Blank lines part the entries; values can stand above or below the compound they belong to.
Experiment: wn = mass fraction of the nth substance listed
Conditions: 323.15 K, 101.3 kPa, Liquid, Vibrating tube method

Structure (SMILES): O=[PH2][O-].[Na+] [sodium phosphinate] + O
mass density (w1 = 0.5786): 1438.8 ± 1.1 kg/m3

Structure (SMILES): O=[PH2][O-].O=[PH2][O-].[Mg+2] [magnesium hypophosphite] + O
mass density (w1 = 0.2243): 1167.5 ± 0.4 kg/m3

mass density (w1 = 0.3732): 1343.2 ± 0.9 kg/m3
Structure (SMILES): [Cl-].[Cl-].[Mg+2] [magnesium chloride] + O

From the NIST ThermoML archive (doi:10.1021/acs.jced.6b00828)
